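Compound exposure: 48 hours, 5 concentrations, 96-well plates. GI50 marks 50% less growth. The concentration for full growth arrest is given as TGI.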 Some results are limits rather than exact numbers.

Holding throughout (assay): growth of human tumour cells (NCI), 48 h
The subject of assay [1] is HCC-2998 colon.
Assay [2] deals with SR leukemia.
Assay [3] concerns SK-OV-3 ovarian.
The subject of assay [4] is SK-MEL-5 melanoma.
The test system of assay [5] is K-562 leukemia.
The subject of assay [6] is HL-60(TB) leukemia.
Assay [7] concerns M14 melanoma.
The subject of assay [8] is OVCAR-5 ovarian.
Assay [9] deals with HCT-116 colon.
Assay [10] relates to NCI-H522 lung.

Regarding `N#C/C(=C\c1ccccc1)C(NO)Nc1ccccc1` (centres undefined), the TGI in [1], in [2], in assay [3], in [4], in assay [5] and in assay [6] was > 100 µM throughout. The TGI in assay [7], in assay [8], in assay [9] and in [10] was > 100 µM in each case.
Take `CCn1c(=N)sc2nc3ccccc3n2c1=O`: the TGI in assay [1], in assay [2], in [3], in assay [4], in assay [5] and in assay [6] was > 100 µM each time. The TGI in assay [7], in [8], in assay [9] and in assay [10] was > 100 µM in each case.
Regarding `COc1ccc2c(c1)O/C(=C\c1cccc(OCC(=O)Nc3nc(C)c(C)s3)c1)C2=O`, the GI50 is 9.43 µM in [1]; 0.537 µM in [2]; 25.2 µM in assay [3]; 2 µM in assay [4]; 2.65 µM in assay [5]; 1.48 µM in assay [6]. The GI50 is 0.175 µM in [7], 3.79 µM in assay [8], 5.53 µM in assay [9] and 1.26 µM in [10]. For the same compound, the TGI in assay [1] was > 100 µM; in assay [2], 1.37 µM; in [3], > 75.3 µM; in assay [4], > 100 µM; in assay [6], 3.16 µM; in assay [7], 0.368 µM. Also, the figures for the TGI in assay [8], in assay [9] and in [10] were > 26.3 µM, > 53.3 µM and 2.95 µM, respectively.
In the case of `CCC[CH2][Sn]([CH2]CCC)([O]C(=O)c1cccc(F)c1F)[O]C(=O)c1cccc(F)c1F`, the GI50 was 1.63 µM in assay [1]; 0.371 µM in assay [2]; 2.41 µM in assay [3]; 1.52 µM in assay [4]; 0.207 µM in assay [5]; 0.42 µM in [6]. In addition, the GI50 in [7] is 1.4 µM; in [8], 1.88 µM; in assay [9], 1.2 µM; in [10], 0.133 µM. Besides, the TGI in [1] stood at 2.98 µM; in [2], 3.49 µM; in assay [3], 4.49 µM; in assay [4], 2.87 µM; in assay [5] it was 1.08 µM; in assay [6], 2.4 µM. In addition, the TGI in assay [7] was determined as 2.77 µM; in assay [8], 3.28 µM; in assay [9], 2.43 µM; in [10], 0.277 µM.
`COc1cccc(NC(=O)c2sc3nc4c(cc3c2N)C(O)CCC4)c1` (centres undefined): the GI50 in assay [1] is 0.347 µM; in assay [2], 0.0432 µM; in assay [3], 0.317 µM; in assay [4], 0.311 µM; in [5] it was 0.0406 µM; in assay [6], 0.0534 µM. Besides, the GI50 was 0.134 µM in assay [7], 0.521 µM in assay [8], 0.117 µM in assay [9] and 0.105 µM in assay [10]. For the same compound, the TGI in assay [1] was > 100 µM; in assay [2], > 100 µM; in [3], > 71.3 µM; in [4], 8.29 µM; in assay [5] it was > 100 µM; in assay [6], 0.534 µM. Further, the TGI in assay [7] was > 100 µM; in assay [8] it was > 100 µM; in [9] it was > 100 µM; in assay [10] it was 2.57 µM.
With `COc1ccc2c(c1)[n+](=O)c(C(=O)CC(=O)C(=O)Nc1cccc(C)c1C)c(C)n2[O-]`, the TGI in [1], in assay [2], in [3], in assay [4], in [5] and in assay [6] was > 100 µM each time. The TGI in assay [7], in assay [8], in assay [9] and in assay [10] was > 100 µM throughout.
For the compound `Cc1nc(Sc2nc3ccc([N+](=O)[O-])cc3s2)sc1C`, the GI50 in [1] is 12.5 µM; in assay [2] it was 0.367 µM; in assay [3], 4.38 µM; in assay [4], 1.67 µM; in assay [5] it was 0.429 µM; in assay [6], 1.68 µM. The GI50 in assay [7] is 1.82 µM; in [8], 2.84 µM; in assay [9], 1.06 µM; in assay [10] it was 0.627 µM. The TGI in assay [1] worked out at 25.2 µM; in assay [2] it was 5.94 µM; in [3], 15.5 µM; in assay [4], 4.58 µM; in assay [5], 8.97 µM; in assay [6], 4.6 µM. Further, the TGI in [7] turned out to be 4.14 µM; in [8], 11.8 µM; in assay [9], 2.49 µM; in [10] it was 2.36 µM.
With `OC(COc1ccccc1)CN1CCCCC1` (centres undefined), the TGI in assay [1], in assay [2], in assay [3], in [4], in assay [5] and in assay [6] was > 100 µM each time. The TGI in [7], in assay [8], in [9] and in assay [10] was > 100 µM each time.
Regarding `O=C1C=C(Nc2ccc(S(=O)(=O)Nc3ncccn3)cc2)c2ccccc2C1=O`, the TGI in assay [1] is 36.6 µM; in [2] it was 95.9 µM; in assay [3], 90.7 µM; in assay [4] it was 32.9 µM; in assay [5], 49.4 µM; in assay [6], 72.7 µM. The TGI in [7] is 34.1 µM; in assay [8] it was 34.4 µM; in [9] it was 35.9 µM; in assay [10] it was 32 µM.
`O=C(Nc1ccc2c(c1)OCCO2)C(=O)c1c[nH]c2ccccc12`: the GI50 in assay [1] was 1.37 µM; in [2], 0.268 µM; in assay [3] it was 1.5 µM; in assay [4], 1.47 µM; in assay [5] it was 0.369 µM; in assay [6] it was 1.21 µM. Also, the GI50 is 0.839 µM in assay [7], 3.47 µM in assay [8], 1.25 µM in assay [9] and 0.536 µM in assay [10]. Further, the TGI in assay [1] is > 100 µM; in assay [2], > 46.7 µM; in assay [3], 8.62 µM; in assay [4] it was > 100 µM; in assay [5], > 100 µM; in assay [6], > 32.9 µM. The TGI is > 100 µM in assay [7], > 100 µM in [8], > 20.5 µM in assay [9] and 16.3 µM in assay [10].

These data come from PubChem BioAssay (NCI).
